Tests used:
[1] = system: α-synuclein-expressing yeast; assay: α-synuclein toxicity rescue in yeast (growth, OD600); format: cell-based; conditions: FIGS. 8A-8B
Experimental: Yeast Strains and culturing: Yeast strains expressing alpha-synuclein have been described in Cooper at. al, 2006. (Cooper A A, et al. Alpha-synuclein blocks ER-Golgi traffic and Rab1 rescues neuron loss in Parkinson's models. Science. 2006 Jul. 21; 313:324) Strains express multiple copies of alpha-synculein for galactose-inducible expression. […] Yeast were cultured in complete synthetic media (CSM) and an appropriate dropout (lacking histidine or uracil) to maintain plasmids if required. For galactose-induction experiments, overnight cultures were grown in CSM/2% glucose to saturation and diluted 1:20 into CSM/2% raffinose for ˜2 generations. Cultures were then diluted into CSM/2% galactose at an optimum OD600 for the experiment (see ‘Growth assays’).
(§1) Yeast Growth assays: Starting cultures for all dose-response assays were based on strains initially constructed in the lab to maintain homogeneity across experiments. All growth assays were carried out in 384 well format. Source plates were assembled in 96 well plates using multichannel pipettes to dilute rows in 1.6-fold serial dilutions of CSMGal. To these dilution series containing 2× final concentration of compound, 2×OD600 culture (in CSMGal) was dispensed with a multichannel pipette to achieve a final drug/culture mix with the desired OD600 and drug concentration. For WT yeast, the final starting OD600 was 0.01. For α-syn, the final starting OD600 was 0.02. Drug concentration ranges varied depending on efficacy, growth inhibition, and solubility in media. A Tecan EvoFreedom liquid handling robot was then used to transfer culture from 96 to 384 well format with each well being represented four times. Final well volume was 35 μL. Plates were then incubated in humidified containers at 30° C. for either 24 or 40 hours. Plates were then read with a Tecan Saphire plate reader at OD600.
Raw OD600 values were transformed to “Relative Growth” in WT cells or “% Maximum Rescue” in α-syn experiments. In WT cells, the well background was subtracted and all values were then normalized to 100% for the untreated condition. In α-syn rescue experiments, the well background was subtracted and the maximum rescue in the particular experiment was normalized to 100%.

WT control yeast strain = assay: Toxicity profile on WT control yeast strain (growth); format: cell-based; conditions: FIGS. 9A-9B
Experimental: as §1, with “A Tecan EvoFreedom liquid handling robot was then used to transfer culture from 96 to 384 well format with each well being represented four times. Final well volume was 35 μL. Plates were then incubated in humidified containers at 30° C. for either 24 or 40 hours.” left out
Raw OD600 values were transformed to “Relative Growth” in WT cells or “% Maximum Rescue” in α-syn experiments. […] All experimental data points were then calculated by (OD600Exp−OD600untreated/(OD600Max−OD600untreated)×100 to obtain rescue relative to maximum rescue observed. Dose-response curves were generated by nonlinear regression analysis using Prism Graphpad v. 6.0. In cases where the compounds began inhibiting growth, only points up to the maximum were used to fit the curve. Above that, points were directly connected and are always presented as dotted lines.

Sna3-GFP = assay: Immunoblot analysis of Sna3-GFP polyubiquitination in WT and α-syn cells; format: cell-based, yeast; conditions: FIG. 11B
Experimental: (§2) Protein analysis was performed in NoTox and HiTox strains with the compound treatment at indicated concentrations. Log phase CSM/2% raffinose cultures were induced with 2% galactose for 5 hours with DMSO or the compounds. Cultures were normalized to cell density and cell pellets prepared for SDS-PAGE. Cell pellets were boiled in SDS-loading dye for 15′, centrifuged, and resolved by 4-12% SDS-PAGE. CPY western blots were performed using culture conditions as described above. An anti-Cpy antibody (Invitrogen, A6428) was used at 1:5,000. Post-ER:ER ratios were quantitated using an IRDye800 secondary antibody (Li-Cor Odyssey, Rockland Immunochemicals) and scanned with the Li-Cor Odyssey imaging system. Significance was determined using a one-way ANOVA and Tukey's test of significance. From the same gel, total protein was detected by coomassie staining. Both blots and coomassie-stained gels were scanned using the Li-Cor Odyssey imaging system and quantitated. Significance was determined using a one-way ANOVA with Tukey's test of significance.
In WT Sna3-GFP cells, log phase CSMRaf cultures were shifted to galactose for 5 hours in the presence or absence of the compounds. Cell pellets were lysed in SDS-loading dye and Sna3-GFP cleavage monitored by Western blotting with an anti-GFP antibody. […]

Carboxypeptidase Y (CPY) = assay: Western blot of Carboxypeptidase Y (CPY) trafficking; format: cell-based, yeast; conditions: FIG. 11D
Experimental: as §2

[2] = system: aSyn-expressing yeast cells; assay: Morphological analysis of aSyn-expressing yeast cells; format: cell-based; conditions: 10 uM, galactose induction five hours, FIG. 10
Experimental: Raffinose cultures of α-syn expressing yeast cells were grown up to the logarithmic phase in raffinose. Cultures were induced with galactose for five hours in the presence or absence of the indication concentration of the compounds. In the present example, the identified compounds were present at a concentration of 10 uM. Cells were centrifuged, media discarded, and then fixed with 4% paraformaldehyde in 1×PBS for 1 hr. The fixed culture was centrifuged, and the pellet resuspended in 0.4% paraformaldehyde in 1×PBS and kept at 4° C.

[3] = system: K63 linkages in iPS derived human neurons; assay: K63-Ub linkages in human iPS derived neuronal cultures (immunoblot); format: cell-based; conditions: 5 μM for 12 hours, FIG. 13A
Experimental: (§3) Human HEK-293 or neuronal cells treated with the appropriate compounds, were washed twice with ice cold PBS and then 0.5 ml of Lysis buffer was added and cells were scraped off the 10 cm dish (1 ml for 15 cm).
(§4) Lysis buffer is 50 mM Tris/HCl pH 7.5, 1 mM EGTA, 1 mM EDTA, 0.5 or 1% (v/v) NP-40, 1 mM sodium orthovanadate, 50 mM NaF, 5 mM sodium pyrophosphate, 0.27 M sucrose, 10 mM sodium 2-glycerophosphate, 0.2 mM phenylmethylsulphonyl fluoride, 1 mM benzamidine, plus 100 mM iodoacetamide added fresh prior to lysis (weight powder, don't use a frozen stock solution) to inactivate deubiquitylase activities and add also pepstatin/aprotinin to inhibit proteases. Cell extracts were sonicated twice for 15 seconds each time and clarified by centrifugation at 14000 g for 15 min at 4° C. Supernatants were collected and filtered using a 0.45 uM MiniSart/Syringe. Next, protein concentrations were determined by Bradford procedure.
The avidity based K63 linkage sensor protein was based on Sims et. al, 2012. Briefly, avidity based K63 sensor Halo-fusion protein was expressed in an E. coli expression vector and covalently bound to Halo-tag beads [Magne® HaloTag® Beads, 20% Slurry; Cat #G7281]. […] After incubation, the beads were washed three times with 1 ml of Lysis buffer containing 500 mM NaCl and once with 0.5 ml of 10 mM Tris/HCl pH 8.0. […] The eluate is heated at 75° C. for 5 min and analysed by immuno-blotting using an anti-K63 linkage specific antibody (http://www.abcam.com/ubiquitin-linkage-specific-k63-epr8590-448-antibody-ab179434.html).
Pure neuronal cultures derived from human iPS cells were treated with DMSO, DES-2877, DES-4114 and #32 at 5 μM for 12 hours. […] Ubiquitylation site identification by mass spectrometry was performed as described Kim et al., (Systematic and quantitative assessment of the ubiquitin-modified proteome. Mol Cell. 2011; 44:325-340). and Sarraf et al., (Landscape of the PARKIN-dependent ubiquitylome in response to mitochondrial depolarization. Nature. 2013; 496:372-376).

[4] = system: K63 linkages in human HEK-293 cells; assay: Ubiquitin chain linkages in HEK-293 cells; format: cell-based; conditions: 5 μM for 12 hours, FIG. 13B
Experimental: as §3, §4
The avidity based K63 linkage sensor protein was based on Sims et. al, 2012. Briefly, avidity based K63 sensor Halo-fusion protein was expressed in an E. coli expression vector and covalently bound to Halo-tag beads [Magne® HaloTag® Beads, 20% Slurry; Cat #G7281]. […] The eluate is heated at 75° C. for 5 min and analysed by immuno-blotting using an anti-K63 linkage specific antibody (http://www.abcam.com/ubiquitin-linkage-specific-k63-epr8590-448-antibody-ab179434.html). […]

SMILES: COc1cc(Cl)cc(/C=N/Nc2nc(Nc3ccc(C)cc3Br)nc(N3CCOCC3)n2)c1O [DES-4114]
- rescue of aSyn toxicity in yeast (in words) [1]: most effective
- toxicity on WT control yeast strain (in words) (WT control yeast strain): least toxic among active analogs
- polyubiquitinated Sna3-GFP (Sna3-GFP): increase
- accumulation of CPY trafficking intermediates en route to the vacuole (Carboxypeptidase Y (CPY)): increase
- morphology: vesicular intermediates in yeast cells [2]: accumulation of vesicular intermediates
- K63 linkages in iPS derived human neurons [3]: modest increase
- K63 linkages in human HEK-293 cells [4]: modest increase

Source: patent publication US20200375996A1, “METHOD OF TREATING NEURODEGENERATIVE DISORDERS BY RESCUING ALPHA-SYNUCLEIN TOXICITY” (D.E. Shaw Research, LLC, priority 2015, published 2020)
